Test results taken from patent publication US20050163778A1, “Extracorporeal photopheresis in combination with anti-TNF treatment” (priority 2003, published 2005).

Tested on: TNFα production by monocyte-derived dendritic cells
Experiment: Examples 2-4: TNFα production by LPS-stimulated monocyte-derived dendritic cells (ELISA of culture supernatants)
Type: cell-based, human
Conditions: 48 hours
Protocol: In examples 1-5, Monocyte-derived dendritic cells were obtained as follows: PBMC were isolated from the peripheral blood of healthy donors by fractionation over Ficoll-Hypaque gradient centrifugation. Monocytes were positively selected using the MACS CD14 isolation kit and the Automacs system (Miltenyi Biotec, Germany). CD14^+ monocytes were cultured in complete RPMI supplemented with 40 ng/ml IL-4 and GM-CSF (R&D Systems) for 5 days. Cytokine secretion was induced by stimulation of the dendritic cells with lypopolysacharides (“LPS”, Sigma). Standard ELISA procedures were used to measure TNFα and IL-12 (R&D Systems) levels in culture supernatants.
Culture supernatants were harvested from these cultures at 48 hours for measurement of TNFα production. […] While each of these treatments represent a reduction from the baseline value of over 1000 pg/ml, the levels dropped to an average of less than 50 pg/ml when the method of the invention was used.
Culture supernatants were harvested from these cultures at 48 hours for quantitation of TNFα production. […] While each of these treatments represent a reduction from the baseline value of over 2300 pg/ml, the levels dropped to about 100 pg/ml when the method of the invention was used.
Culture supernatants were harvested from these cultures at 48 hours for measurement of TNFα production. Another group of dendritic cells were similarly treated and the culture supernatants were harvested from these cultures at 48 hours for quantitation of TNFα production.

## infliximab [Remicade mAb]
Example 2, increasing quantities of LPS, Remicade mAb 200 ng/ml, ECP-treated CD15+ cells 5×10^5 cells/well, baseline over 1000 pg/ml
  TNFα in culture supernatant: about 100 pg/ml
Example 3, 0.1 mg/ml LPS, Remicade mAb 200 ng/ml, ECP-treated CD15+ cells 5×10^5 cells/well, baseline over 2300 pg/ml
  TNFα in culture supernatant: about 500 pg/ml
Example 4, 8 ng/ml Remicade mAb, alone or with ECP
  TNFα in culture supernatant: greater than 1300 pg/ml
Example 4, about 2 ng/ml Remicade mAb, alone or with ECP
  TNFα in culture supernatant: ~1000 pg/mL
